In patent publication US20260306495A1, “COMBINATION OF CAPIVASERTIB, A CDK4/6 INHIBITOR AND FULVESTRANT FOR USE IN THE TREATMENT OF BREAST CANCER” (AstraZeneca AB, priority 2023, published 2026):

Tests used:
[1] = Pharmacokinetics, palbociclib triplet, CAPItello-292 Phase Ib; format: in vivo, human
Procedure: In the open-label Phase Ib part of the study: • The initial palbociclib cohort will receive capivasertib (320 mg oral twice daily, 4 days on and 3 days off for 4 weeks), palbociclib (125 mg, oral once daily, dosed continually for 21 days out of 28 days), and fulvestrant (500 mg intramuscular injection [IM] monthly [Day 1 of a 28-day cycle] with a loading dose of 500 mg 2 weeks after the first dose). • The initial ribociclib cohort will explore the combination of capivasertib (400 mg oral twice daily, 4 days on and 3 days off for 4 weeks), ribociclib (400 mg, oral once daily, dosed continually for 21 days out of 28 days), and fulvestrant (500 mg IM monthly [Day 1 of a 28-day cycle] with a loading dose of 500 mg 2 weeks after the first dose). • The initial abemaciclib cohort will explore the combination of capivasertib (400 mg oral twice daily, 4 days on and 3 days off for 4 weeks), abemaciclib (100 mg, oral twice daily, 28 days out of 28 days), and fulvestrant (500 mg IM monthly [Day 1 of a 28-day cycle] with a loading dose of 500 mg 2 weeks after the first dose).
At the time of data cut-off of 31 Oct. 2022, 39 patients had been treated with capivasertib in combination with palbociclib and fulvestrant across three dose levels. Dose 1 opened first; dose levels 2 and 3 opened simultaneously: • Dose level 1: capivasertib 320 mg+palbociclib 125 mg+fulvestrant 500 mg • Dose level 2: capivasertib 400 mg+palbociclib 100 mg+fulvestrant 500 mg • Dose level 3: capivasertib 400 mg+palbociclib 125 mg+fulvestrant 500 mg

[2] = Pharmacokinetics, ribociclib triplet (preliminary modelling from clinical data); format: in vivo, human; details: for Increase of capivasertib AUC vs historical monotherapy data: preliminary modelling from clinical data
Procedure: In the open-label Phase Ib part of the study: • The initial palbociclib cohort will receive capivasertib (320 mg oral twice daily, 4 days on and 3 days off for 4 weeks), palbociclib (125 mg, oral once daily, dosed continually for 21 days out of 28 days), and fulvestrant (500 mg intramuscular injection [IM] monthly [Day 1 of a 28-day cycle] with a loading dose of 500 mg 2 weeks after the first dose). • The initial ribociclib cohort will explore the combination of capivasertib (400 mg oral twice daily, 4 days on and 3 days off for 4 weeks), ribociclib (400 mg, oral once daily, dosed continually for 21 days out of 28 days), and fulvestrant (500 mg IM monthly [Day 1 of a 28-day cycle] with a loading dose of 500 mg 2 weeks after the first dose). • The initial abemaciclib cohort will explore the combination of capivasertib (400 mg oral twice daily, 4 days on and 3 days off for 4 weeks), abemaciclib (100 mg, oral twice daily, 28 days out of 28 days), and fulvestrant (500 mg IM monthly [Day 1 of a 28-day cycle] with a loading dose of 500 mg 2 weeks after the first dose). […]

[3] = Yu Y, et al. J Clin Pharmacol 2017; 57 (2): 173-184; cited from earlier work
Japanese participants = experiment: DLTs, Japanese participants; format: in vivo, human (Japanese); details: capivasertib + palbociclib 125 mg + fulvestrant
Excerpt: (§1) For the Phase Ib part of the study, participants must be eligible for fulvestrant therapy and at least one of the following: palbociclib, ribociclib, or abemaciclib, as per local investigator assessment. Participants who received treatment with at least one prior endocrine therapy (alone or in combination) for ABC and a maximum of 2 lines prior chemotherapy (for global participants) or up to 1 prior line of chemotherapy (for Japanese participants) are eligible. […]

[4] = test system: participants with locally advanced (inoperable) or metastatic HR+/HER2− breast cancer; experiment: Dose-limiting toxicities (DLTs), CAPItello-292 Phase Ib, palbociclib triplet; format: in vivo, human; details: triplet with capivasertib and fulvestrant
Excerpt: The Phase Ib part of the study consists of an open-label, 3-arm dose finding phase to determine the safe and well tolerated doses and schedules (RP3D) of capivasertib plus CDK4/6i (palbociclib, ribociclib, or abemaciclib) and fulvestrant (the latter administered at fixed dose and schedule, as per label) as triplet combinations in participants with ABC. The maximum tolerated doses (MTD) may also be determined. […]

[5] = Pharmacokinetics, Japanese participants; format: in vivo, human (Japanese); details: 100 mg oral (Japanese) vs 125 mg oral (rest of the world), with capivasertib 400 mg; preliminary limited data
Excerpt: as §1

NC1(C(=O)N[C@@H](CCO)c2ccc(Cl)cc2)CCN(c2ncnc3[nH]ccc23)CC1 [capivasertib, (S)-4-amino-N-(1-(4-chlorophenyl)-3-hydroxypropyl)-1-(7H-pyrrolo[2,3-d]pyrimidin-4-yl) piperidine-4-carboxamide]
PK of capivasertib versus previous monotherapy data ([1]; in combination with palbociclib and fulvestrant): consistent with previous monotherapy data | Increase of capivasertib AUC vs historical monotherapy data ([2]; with ribociclib 400 mg, 95% CI 1% to 43%): 19% | Increase of capivasertib AUC vs historical monotherapy data ([2]; with ribociclib 600 mg, 95% CI 0% to 34%): 16%

CC(=O)c1c(C)c2cnc(Nc3ccc(N4CCNCC4)cn3)nc2n(C2CCCC2)c1=O [palbociclib, 6-acetyl-8-cyclopentyl-5-methyl-2-{[5-(1-piperazinyl)-2-pyridinyl]amino}pyrido[2,3-d]pyrimidin-7 (8H)-one]
Palbociclib expected accumulation ratio [3]: 2.4 | Palbociclib AUC accumulation, Day 11/Day 1 ratio ([1]; Cycle 1 Day 11 / Cycle 0 Day 1, with capivasertib and fulvestrant, 90% CI): 2.89 (90% CI 2.64-3.15) | Palbociclib AUC accumulation, Day 14/Day 1 ratio ([1]; Cycle 1 Day 14 / Cycle 0 Day 1, with capivasertib and fulvestrant, 90% CI): 2.77 (90% CI 2.54-3.03) | Increase of palbociclib area under curve (AUC) by capivasertib ([1]; based on observed and expected accumulation from Cycle 0, Day 1 to Cycle 1, Day 11 and Day 14): approximately 20% | Incidence of DLTs (febrile neutropenia) (Japanese participants): led to palbociclib dose de-escalation from 125 mg to 100 mg | Cause of the most frequent DLT (neutropenia/neutrophil count decreased) [4]: driven by palbociclib | Mean palbociclib plasma exposure, Japanese participants vs rest of the world [5]: roughly similar

CN(C)C(=O)c1cc2cnc(Nc3ccc(N4CCNCC4)cn3)nc2n1C1CCCC1 [ribociclib, 7-cyclopentyl-N,N-dimethyl-2-{[5-(1-piperazinyl)-2-pyridinyl]amino}-7H-pyrrolo[2,3-d]pyrimidine-6-carboxamide]
Ribociclib exposure vs published population PK model ([2]; with capivasertib, consistent with DDI predictions based on capivasertib as a weak CYP3A inhibitor): generally within model predictions
